Measured values from patent publication US7576128B2 (priority 2004, dated 2009).
Numbering of substitutions follows the chain as printed. Where two headings read alike, the source gives them in different places.

Legend:
androgen receptor = molecular target: T1, androgen receptor (Homo sapiens, UniProt P10275); test: AR antagonist cell assay, MDA-MB453-MMTV clone 54-19 luciferase reporter; type: cell-based
T1 sequence (P10275 1-920 Q868H): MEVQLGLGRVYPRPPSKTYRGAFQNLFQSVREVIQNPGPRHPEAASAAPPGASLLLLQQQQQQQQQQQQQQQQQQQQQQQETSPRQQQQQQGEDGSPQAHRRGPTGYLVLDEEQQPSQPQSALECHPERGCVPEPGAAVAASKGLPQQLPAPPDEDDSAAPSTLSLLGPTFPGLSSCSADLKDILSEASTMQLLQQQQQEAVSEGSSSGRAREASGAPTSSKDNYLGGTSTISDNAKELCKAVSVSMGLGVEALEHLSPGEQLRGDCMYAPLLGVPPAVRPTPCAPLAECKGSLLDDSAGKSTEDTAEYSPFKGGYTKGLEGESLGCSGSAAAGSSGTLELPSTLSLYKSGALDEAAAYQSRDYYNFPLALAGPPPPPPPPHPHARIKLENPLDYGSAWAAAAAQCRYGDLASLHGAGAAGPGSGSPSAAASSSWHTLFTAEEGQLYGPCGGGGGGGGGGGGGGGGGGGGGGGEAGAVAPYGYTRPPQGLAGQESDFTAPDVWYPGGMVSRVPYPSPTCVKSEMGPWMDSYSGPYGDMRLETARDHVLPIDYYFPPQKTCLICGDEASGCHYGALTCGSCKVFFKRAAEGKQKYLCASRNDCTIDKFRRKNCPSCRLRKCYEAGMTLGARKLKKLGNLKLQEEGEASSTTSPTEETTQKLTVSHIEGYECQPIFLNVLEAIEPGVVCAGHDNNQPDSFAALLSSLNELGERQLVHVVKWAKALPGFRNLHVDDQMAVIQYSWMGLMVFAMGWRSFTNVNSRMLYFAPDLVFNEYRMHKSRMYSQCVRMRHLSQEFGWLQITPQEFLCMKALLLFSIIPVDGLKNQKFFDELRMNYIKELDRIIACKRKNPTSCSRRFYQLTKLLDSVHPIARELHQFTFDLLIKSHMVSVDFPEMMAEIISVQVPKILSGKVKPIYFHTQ
Method: The compounds ability to antagonize the effects of androgen on the androgen receptor were determined in a whole cell assay as described immediately below.
This cell line is a stable transfected cell line with MDA-MB453 cell background (a human breast tumor cell line expressing androgen receptor). A MMTV minimal promoter containing ARE was first cloned in front of a firefly luciferase reporter gene. Then the cascade was cloned into transfection vector pUV120puro. Electroporation method was used for transfecting MDA-MB-453 cell. Puromycin resistant stable cell line was selected.
• 1. Cells are maintained in culture medium, splitting cells when they reach 80-90% confluence • 2. To test compounds, 10,000 cells/well are plated to opaque 96 cell culture plate in 100 ul/well plating medium, culture for overnight at 37° C. in cell culture incubator • 3. Carefully remove plating medium, then add 80 ul/well of pre-warmed assay medium, add 10 ul/well testing compound (final concentration at) 1000 nM, 200 nM, 40 nM, 8 nM, 1.6 nM, and 0.32 nM), incubate at 37° C. for 30 minutes • 4. Add 10 ul/well freshly prepared DHT (final concentration at 100 pM) to each well, incubate at 37° C. for 17 hr (overnight) • 5.
The results are reported as the mean of multiple tests as described below (the numbers of tests are indicated in the footnote). N.D. denotes that the compound was not tested.

[1] = molecular target: T2, hAR (human androgen receptor) (Homo sapiens, UniProt P10275); test: Competitive binding analysis on baculovirus/Sf9 generated hAR extracts with 3H-DHT tracer
T2 construct: made in house; host or cells: baculovirus/Sf9 insect cells
T2 sequence (P10275 1-920): T1 sequence (P10275 1-920 Q868H) with H868Q
Method: The description below describes how the assay was carried out.
Competitive binding analysis was performed on baculovirus/Sf9 generated hAR extracts in the presence or absence of different concentrations of test agent and a fixed concentration of ^3H-dihydrotestosterone (^3H-DHT) as tracer. This binding assay method is a modification of a protocol previously described (Liao S., et. al. J. Steroid Biochem. 20:11-17 1984). Briefly, progressively decreasing concentrations of compounds are incubated in the presence of hAR extract (Chang et al. P.N.A.S. Vol. 89, pp. 5546-5950,1992), hydroxylapatite, and 1 nM ^3 H-DHT for one hour at 4° C. Subsequently, the binding reactions are washed three times to completely remove excess unbound ^3 H-DHT. hAR bound ^3H-DHT levels are determined in the presence of compounds (=i.e competitive binding) and compared to levels bound when no competitor is present (=i.e. maximum binding). Compound binding affinity to the hAR is expressed as the concentration of compound at which one half of the maximum binding is inhibited.

[2] = MDA-MB453-MMTV clone 54-19, 100 pM DHT, 17 hr; mean of multiple tests; read-out: AR Cell IC50
[3] = hAR extract, 1 nM 3H-DHT, one hour at 4° C., mean of multiple tests, read-out: AR Binding IC50
[4] = read-out: AR Cell IC50; MDA-MB453-MMTV clone 54-19, 100 pM DHT, 17 hr; mean of multiple tests

N#Cc1ccc(OCCCCCO)cc1C(F)(F)F [Example 24, 4-(5-Hydroxy-pentyloxy)-2-tri-fluoromethyl-benzonitrile]
IC50 (androgen receptor; [2]): > 1000 nM | IC50 [1, 3]: 632 nM

CC(CCO)CCOc1ccc(C#N)c(C(F)(F)F)c1 (stereo not drawn) [Example 26, 4-(5-Hydroxy-3-meth-yl-pentyloxy)-2-tri-fluoromethyl-benzonitrile]
IC50 ([1]; read-out: AR Binding IC50): 777 nM

CC(C)C(O)C(C)(C)COc1ccc(C#N)c(C(F)(F)F)c1 (stereo not drawn) [Example 13, 4-(3-Hydroxy-2,2,4-tri-methyl-pentyloxy)-2-tri-fluoromethyl-benzonitrile]
IC50 [1, 3]: 442 nM

CC(O)CCC(C)Oc1ccc(C#N)c(Cl)c1 (stereo not drawn) [Example 28, 2-Chloro-4-(4-hydroxy-1-methyl-pentyloxy)-benzonitrile]
IC50 (androgen receptor; [2]): 263 nM | IC50 ([1]; read-out: AR Binding IC50): 49 nM

N#Cc1ccc(OCCCCO)cc1Cl [Example 30, 2-Chloro-4-(4-hydroxy-butoxy)-benzonitrile]
IC50 ([1]; read-out: AR Binding IC50): 99 nM

CC(O)CCC(C)Oc1ccc(C#N)c(C(F)(F)F)c1 (stereo not drawn) [Example 22, 4-(4-Hydroxy-1-meth-yl-pentyloxy)-2-tri-fluoromethyl-benzonitrile]
IC50 (androgen receptor; [4]): > 1000 nM | IC50 [1, 3]: 185 nM

CCCCCCC(O)COc1ccc(C#N)c(C(F)(F)F)c1 (stereo not drawn) [Example 5, 4-(2-Hydroxy-octyloxy)-2-tri-fluoromethyl-benzonitrile]
IC50 (androgen receptor; [2]): 509 nM | IC50 ([1]; read-out: AR Binding IC50): 32 nM

N#Cc1ccc(OCCCCO)cc1C(F)(F)F [Example 18, 4-(4-Hydroxy-butoxy)-2-tri-fluoromethyl-benzonitrile]
IC50 (androgen receptor; [2]): 398 nM | IC50 ([1]; read-out: AR Binding IC50): 74 nM

CCCC(CCCO)Oc1ccc(C#N)c(C(F)(F)F)c1 (stereo not drawn) [Example 21, 4-(4-Hydroxy-1-pro-pyl-butoxy)-2-tri-fluoromethyl-benzonitrile]
IC50 ([1]; read-out: AR Binding IC50): 808 nM

CC(C)(CO)COc1ccc(C#N)c(C(F)(F)F)c1 [Example 11, 4-(3-Hydroxy-2,2-di-methyl-propoxy)-2-tri-fluoromethyl-benzonitrile]
IC50 [1, 3]: 706 nM

C[C@H](O)C[C@H](C)Oc1ccc(C#N)c(C(F)(F)F)c1 [Example 16, (1S,3S)-4-(3-Hy-droxy-1-methyl-bu-toxy)-2-tri-fluoromethyl-benzonitrile]
IC50 (androgen receptor; [2]): > 1000 nM | IC50 [1]: 6 nM

C=CCCCCC(O)COc1ccc(C#N)c(C(F)(F)F)c1 (stereo not drawn) [Example 6, 4-(2-Hydroxy-oct-7-enyl-oxy)-2-tri-fluoromethyl-benzonitrile]
IC50 (androgen receptor; [2]): 662 nM | IC50 [1, 3]: 415 nM

CC(O)CCCOc1ccc(C#N)c(C(F)(F)F)c1 (stereo not drawn) [Example 19]
IC50 (androgen receptor; [4]): > 1000 nM | IC50 ([1]; read-out: AR Binding IC50): 505 nM

CC(C)CCCC(O)COc1ccc(C#N)c(C(F)(F)F)c1 (stereo not drawn) [Example 4, 4-(2-Hydroxy-6-methyl-heptyloxy)-2-tri-fluoromethyl-benzonitrile]
IC50 (androgen receptor; [2]): > 1000 nM | IC50 [1, 3]: 442 nM

CCCC(O)CCCOc1ccc(C#N)c(C(F)(F)F)c1 (stereo not drawn) [Example 20, 4-(4-Hydroxy-heptyloxy)-2-tri-fluoromethyl-benzontrile]
IC50 (androgen receptor; [2]): 498 nM | IC50 [1, 3]: 243 nM

N#Cc1ccc(OCCCO)cc1Cl [Example 29, 2-Chloro-4-(3-hydroxy-propoxy)-benzonitrile]
IC50 ([1]; read-out: AR Binding IC50): 394 nM

CC(C)(O)CCOc1ccc(C#N)c(C(F)(F)F)c1 [Example 12, 4-(3-Hydroxy-3-meth-yl-butoxy)-2-tri-fluoromethyl-benzonitrile]
IC50 (androgen receptor; [2]): 269 nM | IC50 ([1]; read-out: AR Binding IC50): 27 nM

CC(O)CCCCOc1ccc(C#N)c(C(F)(F)F)c1 (stereo not drawn) [Example 25, 4-(5-Hydroxy-hexyloxy)-2-tri-fluoromethyl-benzonitrile]
IC50 (androgen receptor; [2]): 838 nM | IC50 [1, 3]: 504 nM

CC(O)CCOc1ccc(C#N)c(C(F)(F)F)c1 (stereo not drawn) [Example 7, 4-(3-Hydroxy-butoxy)-2-tri-fluoromethyl-benzonitrile]
IC50 (androgen receptor; [2]): > 1000 nM | IC50 [1, 3]: 274 nM

CC(O)C(C)COc1ccc(C#N)c(C(F)(F)F)c1 (stereo not drawn) [Example 10, 4-(3-Hydroxy-2-meth-yl-butoxy)-2-tri-fluoromethyl-benzonitrile]
IC50 (androgen receptor; [2]): 274 nM | IC50 ([1]; read-out: AR Binding IC50): 70 nM

C=CCC(O)CCOc1ccc(C#N)c(C(F)(F)F)c1 (stereo not drawn) [Example 9, 4-(3-Hydroxy-hex-5-enyl-oxy)-2tri-fluoromethyl-benzonitrile]
IC50 [1, 3]: 268 nM

CCCC(O)C(CC)COc1ccc(C#N)c(C(F)(F)F)c1 (stereo not drawn) [Example 14, 4-(2-Ethyl-3-Hy-droxy-hexyl-oxy)-2-tri-fluoromethyl-benzonitrile]
IC50 (androgen receptor; [2]): 794 nM | IC50 [1, 3]: 260 nM

C[C@H](C[C@@H](C)O)Oc1ccc(C#N)c(C(F)(F)F)c1 [Example 17, (1R,3R)-4-(3-Hy-droxy-1-methyl-butoxy)-2-tri-fluoromethyl-benzonitrile]
IC50 (androgen receptor; [2]): 807 nM | IC50 [1]: 107 nM

C[C@H](O)CCOc1ccc(C#N)c(C(F)(F)F)c1 [Example 8, (3S)-4-(3-Hydroxy-butoxy)-2-tri-fluoromethyl-benzonitrile]
IC50 (androgen receptor; [2]): > 1000 nM | IC50 [1, 3]: 213 nM

C=CC(CO)Oc1ccc(C#N)c(Cl)c1 (stereo not drawn) [Example 31, 2-Chloro-4-(1-hydroxymethyl-allyloxy)-benzonitrile]
IC50 [1, 3]: 156 nM
